Molecule CC[C@@]1(O)C(=O)OCc2c1cc1n(c2=O)Cc2cc3ccccc3nc2-1 has a solubility (mole fraction) (in chloroform, 275.76 K) of 0.000222, a solubility (mole fraction) (in chloroform, 279.07 K) of 0.000246 and a solubility (mole fraction) (in chloroform, 282.38 K) of 0.000272. It also gave a solubility (mole fraction) (in chloroform, 285.02 K) of 0.000288, a solubility (mole fraction) (in chloroform, 287.55 K) of 0.000308 and a solubility (mole fraction) (in chloroform, 291.19 K) of 0.000332. It also gave a solubility (mole fraction) (in chloroform, 294.18 K) of 0.000354, a solubility (mole fraction) (in chloroform, 297.25 K) of 0.000375 and a solubility (mole fraction) (in chloroform, 300.57 K) of 0.000404. The solubility (mole fraction) (in chloroform, 303.1 K) was 0.000421, the solubility (mole fraction) (in chloroform, 305.96 K) was 0.000441 and the solubility (mole fraction) (in chloroform, 308.51 K) was 0.000465. For the same molecule, the solubility (mole fraction) (in chloroform, 311.59 K) was 0.000489, the solubility (mole fraction) (in chloroform, 315.12 K) was 0.000513 and the solubility (mole fraction) (in chloroform, 318.31 K) was 0.000544. For the same molecule, the solubility (mole fraction) (in chloroform, 322.39 K) was 0.000575, the solubility (mole fraction) (in chloroform, 326.25 K) was 0.000613 and the solubility (mole fraction) (in ethanol, 277.98 K) was 9.03e-06. The solubility (mole fraction) (in ethanol, 281.62 K) was 1.08e-05, the solubility (mole fraction) (in ethanol, 284.67 K) was 1.25e-05 and the solubility (mole fraction) (in ethanol, 287.95 K) was 1.39e-05. It also gave a solubility (mole fraction) (in ethanol, 291 K) of 1.6e-05, a solubility (mole fraction) (in ethanol, 294.63 K) of 1.78e-05 and a solubility (mole fraction) (in ethanol, 297.81 K) of 2.01e-05. It also gave a solubility (mole fraction) (in ethanol, 301.09 K) of 2.24e-05, a solubility (mole fraction) (in ethanol, 304.26 K) of 2.46e-05 and a solubility (mole fraction) (in ethanol, 307.54 K) of 2.76e-05. It also gave a solubility (mole fraction) (in ethanol, 310.47 K) of 3.06e-05, a solubility (mole fraction) (in ethanol, 313.63 K) of 3.33e-05 and a solubility (mole fraction) (in ethanol, 316.57 K) of 3.68e-05. It also gave a solubility (mole fraction) (in ethanol, 319.26 K) of 4.01e-05, a solubility (mole fraction) (in ethanol, 321.7 K) of 4.31e-05 and a solubility (mole fraction) (in ethanol, 324.43 K) of 4.64e-05. For the same molecule, the solubility (mole fraction) (in ethanol, 326.3 K) was 4.91e-05, the solubility (mole fraction) (in methanol, 277.52 K) was 1.27e-05 and the solubility (mole fraction) (in methanol, 280.45 K) was 1.43e-05. The solubility (mole fraction) (in methanol, 283.37 K) was 1.57e-05, the solubility (mole fraction) (in methanol, 286.2 K) was 1.72e-05 and the solubility (mole fraction) (in methanol, 289.49 K) was 1.95e-05. It also gave a solubility (mole fraction) (in methanol, 293.24 K) of 2.2e-05, a solubility (mole fraction) (in methanol, 296.6 K) of 2.49e-05 and a solubility (mole fraction) (in methanol, 299.68 K) of 2.74e-05. It also gave a solubility (mole fraction) (in methanol, 302.78 K) of 3.03e-05, a solubility (mole fraction) (in methanol, 305.61 K) of 3.35e-05 and a solubility (mole fraction) (in methanol, 308.45 K) of 3.66e-05. For the same molecule, the solubility (mole fraction) (in methanol, 311.02 K) was 4e-05, the solubility (mole fraction) (in methanol, 313.77 K) was 4.37e-05 and the solubility (mole fraction) (in methanol, 316.53 K) was 4.78e-05. The solubility (mole fraction) (in methanol, 319.02 K) was 5.2e-05, the solubility (mole fraction) (in methanol, 321.42 K) was 5.59e-05 and the solubility (mole fraction) (in methanol, 323.48 K) was 5.95e-05.
